Laboratory results published in the supplement of paper PMC8617591.

Tests used:
[1] = system: Mycobacterium tuberculosis Erdman (autoluminescent); experiment: total FIC50 (Loewe) at 50% inhibition, three-drug combination (log2); higher = more antagonistic
Experimental: (§1)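 DiaMOND equipotent three-drug combination dose responses (10 doses, 1.5- or 2-fold spacing, centred on IC90) against autoluminescent M. tuberculosis Erdman in 8 in vitro models. Read-out is OD600, or luminescence for the intracellular and dormancy models, normalised to untreated wells. Hill-fit Einf, AUC25 and GRinf are potency metrics; FIC50 and FIC90 are total Loewe fractional inhibitory concentrations as log2 (negative = synergy).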

[2] = system: Mycobacterium tuberculosis Erdman (autoluminescent); experiment: total FIC90 (Loewe) at 90% inhibition, three-drug combination (log2); higher = more antagonistic
Experimental: as §1

[3] = system: Mycobacterium tuberculosis Erdman (autoluminescent); experiment: Einf, fitted maximum growth inhibition of three-drug combination (fraction); higher = stronger maximal inhibition
Experimental: as §1

[4] = system: Mycobacterium tuberculosis Erdman (autoluminescent); experiment: AUC25, normalised area under dose response up to IC25 (three-drug combination) (fraction (0-1)); higher = more potent at low dose
Experimental: as §1

[5] = system: Mycobacterium tuberculosis Erdman (autoluminescent); experiment: GRinf, maximum normalised growth rate inhibition (three-drug combination) (unitless (-1 to 1)); higher = less effect (negative = killing)
Experimental: as §1

CC(C)/N=c1\cc2n(-c3ccc(Cl)cc3)c3ccccc3nc-2cc1Nc1ccc(Cl)cc1 [clofazimine] + CC[C@@H](CO)NCCN[C@@H](CC)CO [ethambutol] + CO[C@H]1/C=C/O[C@@]2(C)Oc3c(C)c(O)c4c(O)c(c(/C=N/N5CCN(C6CCCC6)CC5)c(O)c4c3C2=O)NC(=O)/C(C)=C\C=C\[C@H](C)[C@H](O)[C@@H](C)[C@@H](O)[C@@H](C)[C@H](OC(C)=O)[C@@H]1C [rifapentine]
Settings	AUC25, [4]	Einf, [3]	GRinf, [5]	total FIC50, [1]	total FIC90, [2]
in vitro model: acidic pH 5.7, time point: constant (~7 days, model-specific)	0.0945	0.877	-0.109	0.153	–
in vitro model: acidic pH 5.7, time point: terminal (~4-5 doublings, model-specific)	0.0736	0.978	-0.14	0.358	0.125
in vitro model: intracellular J774, time point: constant = terminal	–	0.973	-0.172	–	-1.79

Settings	AUC25, [4]	Einf, [3]	GRinf, [5]	total FIC50, [1]	total FIC90, [2]
in vitro model: butyrate, time point: constant (~7 days, model-specific)	0.083	0.942	-0.0595	0.37	–
in vitro model: butyrate, time point: terminal (~4-5 doublings, model-specific)	0.0656	0.972	-0.043	0.422	-0.0851
in vitro model: cholesterol 0.05 mM, time point: constant (~7 days, model-specific)	0.111	0.703	-0.0332	–	–
in vitro model: cholesterol 0.05 mM, time point: terminal (~4-5 doublings, model-specific)	0.0974	0.871	-0.122	1.66	–
in vitro model: cholesterol-high 0.2 mM, time point: constant (~7 days, model-specific)	0.0285	0.928	-0.371	1.18	–
in vitro model: cholesterol-high 0.2 mM, time point: terminal (~4-5 doublings, model-specific)	0.0668	1	-0.81	1.37	1.24
in vitro model: dormancy (butyrate + nitrate, low O2), time point: constant (~7 days, model-specific)	0.105	0.823	0.414	-0.127	–
in vitro model: dormancy (butyrate + nitrate, low O2), time point: terminal (~4-5 doublings, model-specific)	0.128	0.99	-0.336	0.0752	0.891
in vitro model: standard 7H9 glycerol, time point: constant = terminal	0.105	0.92	0.0206	-0.0963	–
in vitro model: valerate, time point: constant (~7 days, model-specific)	0.126	0.889	0.017	1.07	–
in vitro model: valerate, time point: terminal (~4-5 doublings, model-specific)	0.0898	0.925	0.0199	0.462	0.841

COc1c(N2C[C@@H]3CCCN[C@@H]3C2)c(F)cc2c(=O)c(C(=O)O)cn(C3CC3)c12 [moxifloxacin] + NC(=O)c1cnccn1 [pyrazinamide] + CO[C@H]1/C=C/O[C@@]2(C)Oc3c(C)c(O)c4c(O)c(c(/C=N/N5CCN(C)CC5)c(O)c4c3C2=O)NC(=O)/C(C)=C\C=C\[C@H](C)[C@H](O)[C@@H](C)[C@@H](O)[C@@H](C)[C@H](OC(C)=O)[C@@H]1C [rifampicin]
Settings	AUC25, [4]	Einf, [3]	GRinf, [5]	total FIC50, [1]	total FIC90, [2]
in vitro model: acidic pH 5.7, time point: constant (~7 days, model-specific)	0.0731	0.851	-0.155	0.177	–
in vitro model: acidic pH 5.7, time point: terminal (~4-5 doublings, model-specific)	0.0678	0.99	-0.208	0.423	-0.913
in vitro model: intracellular J774, time point: constant = terminal	–	0.99	-0.539	–	0.76

Settings	AUC25, [4]	Einf, [3]	GRinf, [5]	total FIC50, [1]	total FIC90, [2]
in vitro model: butyrate, time point: constant (~7 days, model-specific)	0.119	0.869	0.125	0.49	2.29
in vitro model: butyrate, time point: terminal (~4-5 doublings, model-specific)	0.114	0.977	-0.00285	0.525	1.3
in vitro model: cholesterol 0.05 mM, time point: constant (~7 days, model-specific)	0.096	0.6	0.1	–	–
in vitro model: cholesterol 0.05 mM, time point: terminal (~4-5 doublings, model-specific)	0.0868	0.868	-0.00841	1.23	–
in vitro model: cholesterol-high 0.2 mM, time point: constant (~7 days, model-specific)	0.0908	0.912	-0.393	1.26	–
in vitro model: cholesterol-high 0.2 mM, time point: terminal (~4-5 doublings, model-specific)	0.0879	1	-0.949	1.58	1.47
in vitro model: dormancy (butyrate + nitrate, low O2), time point: constant (~7 days, model-specific)	0.0806	0.87	0.204	0.465	-0.0278
in vitro model: dormancy (butyrate + nitrate, low O2), time point: terminal (~4-5 doublings, model-specific)	0.0656	0.978	-0.115	0.411	0.407
in vitro model: standard 7H9 glycerol, time point: constant = terminal	0.0452	0.781	0.36	–	–
in vitro model: valerate, time point: constant (~7 days, model-specific)	0.0626	0.785	0.176	0.864	–
in vitro model: valerate, time point: terminal (~4-5 doublings, model-specific)	0.0319	0.909	0.127	0.853	0.657

NNC(=O)c1ccncc1 [isoniazid] + CC(=O)NC[C@H]1CN(c2ccc(N3CCOCC3)c(F)c2)C(=O)O1 [linezolid] + CO[C@H]1/C=C/O[C@@]2(C)Oc3c(C)c(O)c4c(O)c(c(/C=N/N5CCN(C6CCCC6)CC5)c(O)c4c3C2=O)NC(=O)/C(C)=C\C=C\[C@H](C)[C@H](O)[C@@H](C)[C@@H](O)[C@@H](C)[C@H](OC(C)=O)[C@@H]1C [rifapentine]
Settings	AUC25, [4]	Einf, [3]	GRinf, [5]	total FIC50, [1]	total FIC90, [2]
in vitro model: acidic pH 5.7, time point: constant (~7 days, model-specific)	0.0908	0.853	-0.0954	0.653	–
in vitro model: acidic pH 5.7, time point: terminal (~4-5 doublings, model-specific)	0.0757	0.977	-0.138	0.526	0.636
in vitro model: intracellular J774, time point: constant = terminal	–	0.946	-0.138	–	0.00443

Settings	AUC25, [4]	Einf, [3]	GRinf, [5]	total FIC50, [1]	total FIC90, [2]
in vitro model: butyrate, time point: constant (~7 days, model-specific)	0.0823	0.894	0.1	0.461	1.07
in vitro model: butyrate, time point: terminal (~4-5 doublings, model-specific)	0.0501	0.94	0.0909	0.377	0.0682
in vitro model: cholesterol 0.05 mM, time point: constant (~7 days, model-specific)	0.153	0.735	-0.233	0.774	–
in vitro model: cholesterol 0.05 mM, time point: terminal (~4-5 doublings, model-specific)	0.125	0.921	-0.273	0.542	0.792
in vitro model: cholesterol-high 0.2 mM, time point: constant (~7 days, model-specific)	0.0853	0.833	-0.0945	0.52	–
in vitro model: cholesterol-high 0.2 mM, time point: terminal (~4-5 doublings, model-specific)	0.093	1	-0.883	0.739	0.834
in vitro model: dormancy (butyrate + nitrate, low O2), time point: constant (~7 days, model-specific)	0.0503	0.879	0.222	1.15	0.705
in vitro model: dormancy (butyrate + nitrate, low O2), time point: terminal (~4-5 doublings, model-specific)	0.0276	0.984	-0.167	0.72	0.385
in vitro model: standard 7H9 glycerol, time point: constant = terminal	0.0681	0.902	0.155	0.53	1.15
in vitro model: valerate, time point: constant (~7 days, model-specific)	0.0749	0.839	0.0814	0.038	–
in vitro model: valerate, time point: terminal (~4-5 doublings, model-specific)	0.0444	0.931	0.0271	0.299	0.267
